Measurements as given in PMC3880597 (Journal of medicinal chemistry, 2013).
Each block holds one compound with its values, some of them ahead of it.

Experiments:
[1] = Pharmacokinetics and brain distribution after single sc dose to mice; assay type: in vivo
[2] = target: MMP-9cat (catalytic domain of human recombinant MMP-9) (Homo sapiens, UniProt P14780); experiment: MMP inhibition kinetics, MMP-9cat; assay type: biochemical; conditions: slow-binding; Ki calculated from koff/kon
[3] = Metabolic stability in male rat liver S9; assay type: in vitro ADME
[4] = female, C57Bl/6J, mouse, in vivo, 25 mg/kg
[5] = female, C57Bl/6J, mouse, in vivo, sc, 25 mg/kg

MMP-9cat (catalytic domain of human recombinant MMP-9), sequence (P14780 107-444 limits assumed): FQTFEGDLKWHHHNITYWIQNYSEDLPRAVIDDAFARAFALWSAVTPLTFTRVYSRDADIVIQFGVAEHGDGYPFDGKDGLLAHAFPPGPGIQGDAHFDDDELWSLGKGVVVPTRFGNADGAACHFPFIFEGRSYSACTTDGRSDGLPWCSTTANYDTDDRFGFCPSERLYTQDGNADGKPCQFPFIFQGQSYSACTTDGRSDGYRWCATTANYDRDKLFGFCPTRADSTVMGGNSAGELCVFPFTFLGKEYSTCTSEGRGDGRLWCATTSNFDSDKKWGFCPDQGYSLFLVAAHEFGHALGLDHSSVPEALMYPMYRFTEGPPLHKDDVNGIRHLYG

SMILES: O=S(=O)(CC1CS1)c1ccc(Oc2ccc(O)cc2)cc1 (stereo not drawn) [Compound 2]
time of maximal brain level of 2 ([1]; after 25 mg/kg sc dose of 5b): 20 min
maximal brain level of 2, molar equivalent ([1]; after 25 mg/kg sc dose of 5b, at 20 min, assuming a density of 1.0 g/mL): 1.35 ± 1.10 µM
brain level of 2 at 4 h ([1]; after 25 mg/kg sc dose of 5b, mice): 0.255 ± 0.0154 pmol/mg
maximal plasma concentration of 2 ([1]; after 25 mg/kg sc dose of 5b, mice, at 10 min): 1.24 ± 0.676 µM
maximal brain level of 2 ([1]; after 25 mg/kg sc dose of 5b, mice, at 20 min): 1.35 ± 1.10 pmol/mg tissue
t½α, plasma ([1]; compound 2 after 25 mg/kg sc dose of 5b, mice): 0.688 h
Kp [1, 4]: 1.64
concentration at 4 h [1, 4]: 114 ± 14.7 nM
AUC(0-inf) [1, 5]: 1.17 µM·h
AUC(0-t) [1, 5]: 0.9 µM·h
Tmax [1, 5]: 0.167 h
half-life ([1]; female, C57Bl/6J, mouse, in vivo, sc, 25 mg/kg, t½β, brain): 8.88 h
half-life ([1]; female, C57Bl/6J, mouse, in vivo, sc, 25 mg/kg, t½β, plasma): 7.7 h
half-life ([1]; female, C57Bl/6J, mouse, in vivo, sc, terminal half-life in brain): 8.9 h
half-life ([1]; female, C57Bl/6J, mouse, in vivo, sc, terminal half-life in plasma): 7.7 h
AUC0-last, brain ([1]; mouse, in vivo, sc, 25 mg/kg): 88.8 pmol·min/mg
AUC0-∞, brain ([1]; mouse, in vivo, sc, 25 mg/kg): 129 pmol·min/mg

time to complete hydrolysis to compound 2 [3]: ≤ 5 min
SMILES: CCOC(=O)Oc1ccc(Oc2ccc(S(=O)(=O)CC3CS3)cc2)cc1 (stereo not drawn) [Compound 4b, Ethyl (4-(4-((thiiran-2-ylmethyl)sulfonyl)phenoxy)phenyl) carbonate]
Ki (inhibition constant) against MMP-9cat [2]: comparable inhibition constants against MMP-9cat as ND-322

SMILES: CCNC(=O)Oc1ccc(Oc2ccc(S(=O)(=O)CC3CS3)cc2)cc1 (stereo not drawn) [Compound 5b, 4-(4-((Thiiran-2-ylmethyl)sulfonyl)phenoxy)phenyl ethylcarbamate]
level of 5b in plasma or brain ([1]; after 25 mg/kg sc dose of 5b, all time points): not quantifiable

SMILES: CCNC(=O)Nc1ccc(Oc2ccc(S(=O)(=O)CC3CS3)cc2)cc1 (stereo not drawn) [Compound 6b, 1-Ethyl-3-(4-(4-((thiiran-2-ylmethyl)sulfonyl)phenoxy)phenyl)urea]
elimination half-life in brain relative to plasma ([1]; 6b after 25 mg/kg sc dose of 6b): 3.3 fold
hydrolysis of 6b to give compound 3 in plasma and brain ([1]; after 25 mg/kg sc dose of 6b): not observed
time of maximal brain level of 6b ([1]; after 25 mg/kg sc dose of 6b): 10 min

SMILES: CCOC(=O)Nc1ccc(Oc2ccc(S(=O)(=O)CC3CS3)cc2)cc1 (stereo not drawn) [Compound 7b, Ethyl (4-(4-((thiiran-2-ylmethyl)sulfonyl)phenoxy)phenyl)carbamate]
Ki (inhibition constant) against MMP-9cat [2]: comparable inhibition constants against MMP-9cat as ND-322
